Laboratory results published in US8415469B2, “Compounds and methods for kinase modulation, and indications therefor” (Plexxikon Inc., priority 2005, dated 2013).
pIC50: −log10 of the molar value.

Legend:
Assay type in all cases: biochemical
Flt4 = molecular target: T1, Flt4 (Homo sapiens, UniProt P35916); assay: AlphaScreen kinase assay, Flt4; details: read-out: IC50, activity toward kinase Flt4
T1 construct: purchased ProQinase GmbH (Freiburg, Germany)
Description: AlphaScreen assay was used to screen additional kinases. The assay is similarly dependent on the phosphorylation of a peptide substrate. In this assay, an antibody that recognizes phosphorylated substrate is bound to an acceptor bead. The peptide substrate is attached to biotin, which binds to a donor head that contains streptavidin. Thus phosphorylated substrate is bound by antibody and streptavidin, bringing the donor and acceptor heads into close proximity when kinase is not inhibited. The donor produces singlet oxygen which results in emission from the acceptor when they are in close proximity. Conversely, when kinase is inhibited, the donor and acceptor beads are not associated and the emission from the acceptor is reduced.
AlphaScreen assays were done using compounds dissolved in DMSO to a concentration of 20 mM. The compounds were diluted accordingly to the desired final concentrations in each sample well, using 1:3 serial dilution for a total of 8 concentration points.

Kit = molecular target: T2, Kit (Homo sapiens, UniProt P10721); assay: AlphaScreen kinase assay, Kit; details: read-out: IC50, activity toward kinase Kit
T2 construct: P1332.N6 BI PTP KIT M552-K948-X COD; His6 (N); made in house; host or cells: E. coli (PTP1B co-expressed)

FGFR1 = molecular target: T3, FGFR1 (Homo sapiens, UniProt P11362, C488A/C584S); assay: AlphaScreen kinase assay, FGFR1; details: read-out: IC50, activity toward kinase FGFR
T3 construct: P1351.pET N6 BI-PTP FGFR A458-E765-X C488A, C584S; made in house; host or cells: E. coli (PTP1B co-expressed)

Ret = molecular target: T4, Ret (Homo sapiens, UniProt P07949); assay: AlphaScreen kinase assay, Ret; details: read-out: IC50, activity toward kinase Ret
T4 construct: P1378.pET-SF BI-PTP RET H661-R1012 HIS; made in house
T4 sequence (P07949 with tags, fused parts or gaps): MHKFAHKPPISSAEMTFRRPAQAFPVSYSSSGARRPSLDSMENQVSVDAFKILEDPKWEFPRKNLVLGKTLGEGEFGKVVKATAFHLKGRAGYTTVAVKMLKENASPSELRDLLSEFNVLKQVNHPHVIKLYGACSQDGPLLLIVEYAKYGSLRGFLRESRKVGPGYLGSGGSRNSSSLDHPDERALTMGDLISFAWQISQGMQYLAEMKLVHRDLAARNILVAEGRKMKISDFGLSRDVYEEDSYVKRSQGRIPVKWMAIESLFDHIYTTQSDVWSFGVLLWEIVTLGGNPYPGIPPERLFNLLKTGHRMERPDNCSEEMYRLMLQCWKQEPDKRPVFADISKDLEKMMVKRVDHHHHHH

B-Raf V600E = molecular target: T5, B-Raf V600E (Homo sapiens, UniProt P15056, V600E); assay: AlphaScreen kinase assay, B-Raf V600E; details: read-out: IC50, activity toward kinase B-Raf V600E
T5 construct: P4254. pFastBacBD-CDC37 BRAF D437-K722-X, V600E; His6 with pFastBac HT leader (TEV site) (N); made in house; host or cells: Sf9 (baculovirus; chaperone CDC37 co-expressed)

Btk = molecular target: T6, Btk (Homo sapiens, UniProt Q06187); assay: Z'-Lyte FRET kinase assay (Invitrogen), Btk; details: read-out: IC50, activity toward kinase Btk
T6 construct: purchased Invitrogen (assay run by Invitrogen)

EphB2 = molecular target: T7, EphB2 (Homo sapiens, UniProt P29323); assay: Z'-Lyte FRET kinase assay (Invitrogen), EphB2; details: read-out: IC50, activity toward kinase EphB2
T7 construct: purchased Invitrogen (assay run by Invitrogen)
T7 sequence (P29323 19-1055): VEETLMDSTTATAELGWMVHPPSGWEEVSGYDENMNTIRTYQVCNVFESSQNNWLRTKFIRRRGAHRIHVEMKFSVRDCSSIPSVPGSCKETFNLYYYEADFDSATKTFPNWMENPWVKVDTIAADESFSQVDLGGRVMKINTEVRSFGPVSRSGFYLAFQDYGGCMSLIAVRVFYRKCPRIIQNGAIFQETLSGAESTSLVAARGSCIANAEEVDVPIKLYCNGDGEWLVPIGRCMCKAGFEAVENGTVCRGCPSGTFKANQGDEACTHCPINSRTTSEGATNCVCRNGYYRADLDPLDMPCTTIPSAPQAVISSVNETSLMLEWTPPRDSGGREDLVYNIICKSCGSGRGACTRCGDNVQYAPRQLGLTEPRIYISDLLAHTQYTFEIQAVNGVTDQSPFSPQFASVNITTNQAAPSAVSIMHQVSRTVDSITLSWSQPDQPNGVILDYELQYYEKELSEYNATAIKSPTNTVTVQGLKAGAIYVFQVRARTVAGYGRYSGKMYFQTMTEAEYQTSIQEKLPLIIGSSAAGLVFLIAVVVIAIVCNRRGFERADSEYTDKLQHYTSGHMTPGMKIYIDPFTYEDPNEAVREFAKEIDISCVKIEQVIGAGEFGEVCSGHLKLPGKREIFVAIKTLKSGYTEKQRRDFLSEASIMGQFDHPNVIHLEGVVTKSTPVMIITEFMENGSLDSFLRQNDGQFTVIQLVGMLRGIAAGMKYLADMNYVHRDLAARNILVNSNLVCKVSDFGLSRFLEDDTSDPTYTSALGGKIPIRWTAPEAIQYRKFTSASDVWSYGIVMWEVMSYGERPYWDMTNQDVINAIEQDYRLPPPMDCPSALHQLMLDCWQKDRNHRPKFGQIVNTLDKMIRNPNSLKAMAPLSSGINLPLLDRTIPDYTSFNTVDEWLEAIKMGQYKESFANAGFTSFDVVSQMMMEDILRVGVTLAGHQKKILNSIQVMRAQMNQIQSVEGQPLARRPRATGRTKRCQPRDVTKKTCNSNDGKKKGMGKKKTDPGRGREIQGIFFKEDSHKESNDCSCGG
Description: The effect of potential modulators of kinase activity can be measured in a variety of different assays known in the art. For example, direct radiometric, indirect FRET or AlphaScreen assays may be used to assess the level of phosphorylation of a substrate in the presence of test compounds in order to determine the inhibitory affect of the compound on the kinase. Invitrogen (Carlsbad, Calif.) uses a FRET based assay for Btk, EGFR, EphB2, Flt3, lrak4, Kdr, MAP2K1, MAPKAPK2, PDGFRB, PKC theta, Stk6 and Yes. For these assays, compounds of the invention were screened by Invitrogen using Z′-Lyte™ kinase assay.
Briefly, the Invitrogen kinase assay involves use of a specific peptide substrate optimized for each kinase, containing a fluorophore at each end that make up the FRET pair. The peptide sensitivity to proteolytic cleavage depends on phosphorylation of the peptide. Non-phosphorylated peptide is cleaved by a protease while peptide phosphorylated by the kinase is not cleaved. Cleavage of the peptide disrupts the FRET between the donor (coumarin) and acceptor (fluorescein) fluorophores, resulting in an increase in the ratio of donor emission to acceptor emission. The emission ratio of coumarin to fluorescein is used to assess the reaction progress. The extent of phosphorylation is determined from the emission ratio, which is low when the kinase is active (phosphorylated peptide is not cleaved, FRET pair connected) or higher for inhibited kinase (non-phosphorylated peptide is cleaved, FRET pair separated). Thus, the assay involves a kinase reaction in the presence of varying concentrations of a given compound, a development reaction with site specific protease, and detection of the fluorescent emission ratio of coumarin and fluorscein. […] Reaction conditions for each kinase are determined to provide optimal reaction times, incubation temperature, kinase and ATP concentrations. Test samples are made up in 1× kinase buffer (50 mM HEPES pH 7.5, 50 mM MgCl2, 5 mM EGTA, 0.05% BRIJ-35) and compound at desired concentration prepared in DMSO such that the final DMSO is 1%. […] Typically, assay plates are prepared to 10 μl final volume per sample, adding 2.5 μl of compound at 4× the desired concentration in 4% DMSO (serial dilution of compound provides concentration curve), 5 μl of the desired kinase mixed with Z′-LYTE™ peptide substrate (2× in 2× kinase buffer, final peptide at 2 μM), and 2.5 μl of 4×ATP solution. All kinase except for MAP2K1 were at 10 μM ATP in the kinase reaction, while MAP2K1 was at 100 μM. Samples are mixed and the kinase reaction is incubated 1 hour at room temperature, after which 5 μl of development solution is added and mixed. After incubation for another 1 hour at room temperature, 5 μl of stop reagent is added to each sample and mixed. The fluorescence signals are measured to determine the emission ratio.

Abl = molecular target: T8, Abl (Homo sapiens, UniProt P00519); assay: AlphaScreen kinase assay, Abl; details: read-out: activity toward kinase Abl, IC50
T8 construct: P1121. pET-SPEC BI-PTP Abl G227-V515-X; His6 (N); made in house; host or cells: E. coli (PTP1B co-expressed)
T8 sequence (P00519 with tags, fused parts or gaps): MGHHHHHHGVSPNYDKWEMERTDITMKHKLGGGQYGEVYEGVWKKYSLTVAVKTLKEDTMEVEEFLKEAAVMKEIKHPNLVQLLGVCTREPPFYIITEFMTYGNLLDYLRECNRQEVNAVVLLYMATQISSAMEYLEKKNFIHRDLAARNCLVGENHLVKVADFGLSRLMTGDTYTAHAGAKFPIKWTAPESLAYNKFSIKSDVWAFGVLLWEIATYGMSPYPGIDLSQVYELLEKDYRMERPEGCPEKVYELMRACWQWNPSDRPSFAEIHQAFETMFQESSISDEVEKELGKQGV
Procedure, shortened: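 AlphaScreen read-out: acceptor-bead emission falls when kinase is inhibited. Biotin-peptide substrate captured on streptavidin donor beads, phospho-specific antibody on acceptor beads. 8 concentrations, 1:3 dilution series, from 20 mM DMSO stocks.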

Yes = molecular target: T9, Yes (Homo sapiens, UniProt P07947); assay: Z'-Lyte FRET kinase assay (Invitrogen), Yes; details: read-out: IC50, activity toward kinase Yes
T9 construct: purchased Invitrogen (Carlsbad, Calif.), screening service
Procedure, shortened: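 Serially diluted compound (1% DMSO final) is mixed with kinase plus 2 μM peptide substrate in pH 7.5 HEPES buffer, then ATP is added to 10 μM. After 1 h at room temperature, site-specific protease is added for another hour, reactions are stopped and fluorescence ratio measured.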

Kdr = molecular target: T10, Kdr (Homo sapiens, UniProt P35968); assay: Z'-Lyte FRET kinase assay (Invitrogen), Kdr; details: read-out: IC50, activity toward kinase Kdr
T10 construct: purchased Invitrogen (assay run by Invitrogen)

c-Raf-1 = molecular target: T11, c-Raf-1 (Homo sapiens, UniProt P04049); assay: AlphaScreen kinase assay, c-Raf-1; details: read-out: IC50, activity toward kinase c-Raf-1
T11 construct: purchased Upstate Biotechnology

B-Raf = molecular target: T12, B-Raf (Homo sapiens, UniProt P15056); assay: AlphaScreen kinase assay, B-Raf; details: read-out: IC50, activity toward kinase B-Raf
T12 construct: purchased Upstate Biotechnology

Measured: pIC50

T1 sequence (P35916 25-1363): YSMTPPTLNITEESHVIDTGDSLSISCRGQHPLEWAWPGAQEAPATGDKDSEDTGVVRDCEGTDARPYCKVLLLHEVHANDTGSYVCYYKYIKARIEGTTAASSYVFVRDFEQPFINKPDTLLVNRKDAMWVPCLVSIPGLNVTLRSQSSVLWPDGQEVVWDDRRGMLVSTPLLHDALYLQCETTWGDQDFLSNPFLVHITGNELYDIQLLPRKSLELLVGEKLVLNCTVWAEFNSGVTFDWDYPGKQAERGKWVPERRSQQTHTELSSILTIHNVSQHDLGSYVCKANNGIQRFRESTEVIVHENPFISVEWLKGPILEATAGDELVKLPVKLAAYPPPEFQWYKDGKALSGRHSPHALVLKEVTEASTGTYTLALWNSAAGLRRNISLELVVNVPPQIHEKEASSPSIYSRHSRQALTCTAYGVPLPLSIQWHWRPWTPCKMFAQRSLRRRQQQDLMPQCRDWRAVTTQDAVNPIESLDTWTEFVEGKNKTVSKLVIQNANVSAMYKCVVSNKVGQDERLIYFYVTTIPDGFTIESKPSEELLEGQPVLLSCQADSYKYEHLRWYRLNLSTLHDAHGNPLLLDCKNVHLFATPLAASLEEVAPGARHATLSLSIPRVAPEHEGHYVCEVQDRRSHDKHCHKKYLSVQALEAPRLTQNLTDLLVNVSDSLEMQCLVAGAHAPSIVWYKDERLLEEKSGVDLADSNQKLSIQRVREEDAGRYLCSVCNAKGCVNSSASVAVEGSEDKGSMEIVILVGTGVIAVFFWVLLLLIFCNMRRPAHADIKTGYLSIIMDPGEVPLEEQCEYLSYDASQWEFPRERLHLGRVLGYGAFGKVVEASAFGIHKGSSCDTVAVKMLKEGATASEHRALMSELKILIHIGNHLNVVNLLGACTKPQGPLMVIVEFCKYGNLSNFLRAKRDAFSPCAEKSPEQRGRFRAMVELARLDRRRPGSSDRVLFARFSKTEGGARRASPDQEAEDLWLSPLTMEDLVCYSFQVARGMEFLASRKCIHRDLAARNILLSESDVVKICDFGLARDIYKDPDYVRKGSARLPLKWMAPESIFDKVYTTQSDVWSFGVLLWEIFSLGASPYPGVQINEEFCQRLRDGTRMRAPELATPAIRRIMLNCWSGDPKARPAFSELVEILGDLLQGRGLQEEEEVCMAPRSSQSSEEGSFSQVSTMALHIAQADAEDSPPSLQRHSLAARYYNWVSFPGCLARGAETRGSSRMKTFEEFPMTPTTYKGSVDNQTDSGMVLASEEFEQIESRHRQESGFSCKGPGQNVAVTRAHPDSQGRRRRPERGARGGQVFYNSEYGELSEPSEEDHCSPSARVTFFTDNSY
T2 sequence (P10721 with tags, fused parts or gaps): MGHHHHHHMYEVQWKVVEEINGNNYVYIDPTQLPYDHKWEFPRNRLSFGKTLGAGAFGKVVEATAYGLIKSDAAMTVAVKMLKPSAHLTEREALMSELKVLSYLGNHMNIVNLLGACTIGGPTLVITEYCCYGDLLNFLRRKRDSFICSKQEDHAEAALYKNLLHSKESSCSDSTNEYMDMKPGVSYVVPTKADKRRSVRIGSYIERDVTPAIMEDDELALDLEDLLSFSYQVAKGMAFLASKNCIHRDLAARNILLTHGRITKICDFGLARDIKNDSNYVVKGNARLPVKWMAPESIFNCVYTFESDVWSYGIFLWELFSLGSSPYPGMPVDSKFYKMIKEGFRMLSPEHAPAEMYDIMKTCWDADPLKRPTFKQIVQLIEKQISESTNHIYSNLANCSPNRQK
T3 sequence (P11362 458-765 C488A/C584S): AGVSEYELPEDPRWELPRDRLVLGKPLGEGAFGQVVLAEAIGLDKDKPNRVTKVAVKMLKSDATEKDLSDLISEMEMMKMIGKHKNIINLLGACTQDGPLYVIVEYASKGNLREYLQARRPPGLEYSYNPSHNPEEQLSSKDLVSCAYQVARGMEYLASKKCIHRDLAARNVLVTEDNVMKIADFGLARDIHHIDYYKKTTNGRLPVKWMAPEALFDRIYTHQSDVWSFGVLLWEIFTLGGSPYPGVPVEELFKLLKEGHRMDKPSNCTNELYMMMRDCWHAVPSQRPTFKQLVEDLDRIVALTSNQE
T5 sequence (P15056 with tags, fused parts or gaps V600E): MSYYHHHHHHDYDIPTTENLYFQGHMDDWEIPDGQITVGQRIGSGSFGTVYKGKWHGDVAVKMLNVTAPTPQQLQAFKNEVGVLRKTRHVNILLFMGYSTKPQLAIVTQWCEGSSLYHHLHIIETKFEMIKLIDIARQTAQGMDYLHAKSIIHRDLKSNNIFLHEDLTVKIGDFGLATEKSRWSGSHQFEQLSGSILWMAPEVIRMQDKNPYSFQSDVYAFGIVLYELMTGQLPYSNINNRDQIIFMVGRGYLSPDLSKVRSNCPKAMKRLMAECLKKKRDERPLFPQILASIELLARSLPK
T10 sequence (P35968 20-1356): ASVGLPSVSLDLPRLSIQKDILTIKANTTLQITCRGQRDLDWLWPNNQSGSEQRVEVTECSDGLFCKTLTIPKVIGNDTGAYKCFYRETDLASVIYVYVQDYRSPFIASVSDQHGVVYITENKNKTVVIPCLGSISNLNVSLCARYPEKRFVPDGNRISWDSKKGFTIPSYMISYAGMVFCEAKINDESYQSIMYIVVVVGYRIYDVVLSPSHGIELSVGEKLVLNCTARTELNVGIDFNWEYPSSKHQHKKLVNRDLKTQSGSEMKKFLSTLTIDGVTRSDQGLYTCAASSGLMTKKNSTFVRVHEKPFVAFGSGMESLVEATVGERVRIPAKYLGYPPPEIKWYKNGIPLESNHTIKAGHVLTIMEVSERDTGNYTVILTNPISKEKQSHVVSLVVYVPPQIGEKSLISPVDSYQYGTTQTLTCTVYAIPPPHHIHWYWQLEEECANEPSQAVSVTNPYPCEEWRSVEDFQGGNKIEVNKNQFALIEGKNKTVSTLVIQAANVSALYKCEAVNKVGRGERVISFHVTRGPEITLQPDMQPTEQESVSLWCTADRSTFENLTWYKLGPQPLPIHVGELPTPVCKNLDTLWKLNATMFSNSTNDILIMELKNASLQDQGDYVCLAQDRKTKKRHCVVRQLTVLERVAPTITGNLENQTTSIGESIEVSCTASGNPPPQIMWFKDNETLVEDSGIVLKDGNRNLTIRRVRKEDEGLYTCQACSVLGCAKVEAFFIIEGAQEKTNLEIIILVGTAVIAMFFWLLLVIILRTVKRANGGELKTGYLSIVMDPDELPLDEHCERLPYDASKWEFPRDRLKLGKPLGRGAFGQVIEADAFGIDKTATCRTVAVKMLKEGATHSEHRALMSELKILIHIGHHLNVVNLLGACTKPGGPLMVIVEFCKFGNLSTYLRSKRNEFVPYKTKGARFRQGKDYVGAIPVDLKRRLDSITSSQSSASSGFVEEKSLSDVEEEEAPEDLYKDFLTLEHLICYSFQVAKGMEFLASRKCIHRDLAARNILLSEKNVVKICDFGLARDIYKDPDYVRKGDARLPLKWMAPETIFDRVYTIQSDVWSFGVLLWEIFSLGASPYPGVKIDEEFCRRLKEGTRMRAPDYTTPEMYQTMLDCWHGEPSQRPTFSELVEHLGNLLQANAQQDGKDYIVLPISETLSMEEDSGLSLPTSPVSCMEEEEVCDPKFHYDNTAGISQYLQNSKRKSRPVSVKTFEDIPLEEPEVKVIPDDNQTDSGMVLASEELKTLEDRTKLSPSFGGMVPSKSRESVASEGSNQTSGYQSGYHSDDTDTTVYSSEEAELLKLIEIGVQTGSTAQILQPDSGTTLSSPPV
T9 sequence (P07947 whole entry): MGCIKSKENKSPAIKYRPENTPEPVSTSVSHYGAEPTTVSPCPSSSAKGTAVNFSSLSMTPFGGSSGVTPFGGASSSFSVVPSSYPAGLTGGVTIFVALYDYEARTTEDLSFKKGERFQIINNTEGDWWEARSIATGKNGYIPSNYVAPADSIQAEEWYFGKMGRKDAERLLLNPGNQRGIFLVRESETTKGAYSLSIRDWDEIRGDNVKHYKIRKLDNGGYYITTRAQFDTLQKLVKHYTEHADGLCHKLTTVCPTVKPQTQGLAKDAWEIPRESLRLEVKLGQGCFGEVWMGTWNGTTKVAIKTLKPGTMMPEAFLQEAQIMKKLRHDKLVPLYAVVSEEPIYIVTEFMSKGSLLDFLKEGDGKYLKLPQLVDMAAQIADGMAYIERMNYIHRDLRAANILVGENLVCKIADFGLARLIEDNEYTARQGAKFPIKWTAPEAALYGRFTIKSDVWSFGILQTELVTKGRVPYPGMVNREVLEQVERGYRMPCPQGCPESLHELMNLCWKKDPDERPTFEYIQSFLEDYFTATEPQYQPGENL
T12 sequence (P15056 whole entry): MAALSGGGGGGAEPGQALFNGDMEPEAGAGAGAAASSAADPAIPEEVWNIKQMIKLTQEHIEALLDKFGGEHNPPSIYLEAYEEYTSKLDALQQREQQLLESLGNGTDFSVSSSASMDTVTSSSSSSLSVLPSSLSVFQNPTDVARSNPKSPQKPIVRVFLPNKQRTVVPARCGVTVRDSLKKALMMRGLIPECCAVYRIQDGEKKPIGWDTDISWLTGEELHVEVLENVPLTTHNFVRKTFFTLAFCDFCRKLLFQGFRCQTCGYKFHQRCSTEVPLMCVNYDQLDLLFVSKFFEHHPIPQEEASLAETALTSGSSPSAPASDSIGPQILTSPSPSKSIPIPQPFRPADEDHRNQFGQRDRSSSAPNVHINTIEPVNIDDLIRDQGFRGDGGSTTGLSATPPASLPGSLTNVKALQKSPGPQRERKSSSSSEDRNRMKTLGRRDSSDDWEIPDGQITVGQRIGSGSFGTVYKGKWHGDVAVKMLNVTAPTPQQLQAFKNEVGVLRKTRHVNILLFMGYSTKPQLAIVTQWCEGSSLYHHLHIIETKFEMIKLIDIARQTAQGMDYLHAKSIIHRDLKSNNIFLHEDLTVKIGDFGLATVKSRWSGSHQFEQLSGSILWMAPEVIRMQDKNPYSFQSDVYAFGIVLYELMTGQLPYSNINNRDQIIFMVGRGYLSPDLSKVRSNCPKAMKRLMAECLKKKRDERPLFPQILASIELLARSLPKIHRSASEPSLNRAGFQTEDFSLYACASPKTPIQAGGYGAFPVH

COc1ccc(C(=O)c2c[nH]c3ncc(Br)cc23)cc1 [Compound P-0617]
≥ 5.00: Flt4 | Kit

COc1cccc(Cc2c[nH]c3ncc(-c4cc5ccccc5[nH]4)cc23)c1 [Compound P-0335]
≥ 5.00: Flt4 | FGFR1

O=C(c1ccc(F)cc1F)c1c[nH]c2nccc(-c3cc(F)cc(F)c3)c12 [Compound P-0352]
≥ 5.00: Flt4 | Ret | B-Raf V600E | Kit

O=C(c1cccc(O)c1)c1c[nH]c2ncc(-c3cc(F)cc(F)c3)cc12 [Compound P-0074]
≥ 5.00: Btk | EphB2 | Abl | Yes | Kdr | B-Raf V600E

CS(=O)(=O)Nc1cccc(-c2cnc3[nH]cc(C(=O)c4ccc(Cl)cc4)c3c2)c1 [Compound P-0813]
≥ 5.00: Flt4 | Ret | Kdr | Kit

O=C(c1ccccc1)c1c[nH]c2nccc(-c3cc(F)cc(F)c3)c12 [Compound P-0452]
≥ 5.00: Flt4 | FGFR1 | Ret

COc1cccc(C(=O)c2c[nH]c3ncc(Br)cc23)c1F [Compound P-0265, (5-bromo-1H-pyrrolo[2,3-b]pyridin-3-yl)-(2-fluoro-3-methoxy-phenyl)-methanone]
≥ 5.00: c-Raf-1 | B-Raf | Flt4 | FGFR1 | Ret | B-Raf V600E | Kit

O=S(=O)(c1ccccc1)c1c[nH]c2ncccc12 [Compound P-0544]
≥ 5.00: Flt4
